According to US9732367B2, “Cell lines” (MEDIMMUNE LIMITED, priority 2012, dated 2017):
Square brackets hold non-standard residues; d marks the D form. Peptide text beside a SMILES is read from it. * marks the point of attachment. Dolaproine = CO[C@@H]([C@@H]1CCCN1)[C@@H](C)C(=O)O; Dil = CC[C@H](C)[C@H](NC)[C@@H](CC(=O)O)OC; NMe2Val = CC(C)[C@@H](C(=O)*)N(C)C

Assays:
[1] = tested on: HCC1954; assay: In vitro cytotoxicity assay, HCC1954; assay type: cell-based
Method: (§1) The ADC's generated as described above were tested for cytotoxic activity in SKOV3 and HCC1954 and PC3 tumor cell lines which are standard target cells for testing the activity of anti Her2 antibodies and ADC cell lines. SKOV3 and HCC1954 express high levels of Her2, while PC3 expresses Her2 at low level: the cytotoxic activity was calculated as the concentration of ADC to kill 50% of the tumor cells in vitro as described in Table 5.
(§2) The ADC's generated as described above were tested for cytotoxic activity in SKOV3 and a PC3 tumor cell lines which are standard target cells for testing the activity of anti Her2 antibodies and ADC cell lines. SKOV3 cells express high levels of Her2, while PC3 cells express Her2 at low level. […] The drug treated cells are incubated at 37 C for 3 days in 100 ul medium. 20 ul of Alamar Blue (Life Technologies) is added to each well and the cells incubated for 16-24 hours and an OD 450 nm determined for each well. The cytotoxic activity of the conjugates was calculated as the concentration of ADC to kill 50% of the tumor cells in vitro as described in Table 8.

[2] = tested on: SKOV3; assay: In vitro cytotoxicity assay, SKOV3; assay type: cell-based, human
Method: as §1
(§3) The Her2 over expressing cell lines, SKBR3 and SKOV3 were compared to PC3, a cell line that expresses very low level of Her2.
as §2

[3] = tested on: SKBR3; assay: In vitro cytotoxicity assay, SKBR3; assay type: cell-based
Method: as §3, §2

[4] = tested on: BT474; assay: In vitro cytotoxicity assay, BT474; assay type: cell-based; details: Table 8, 3 days, Alamar Blue
[5] = Table 5, positional 4D5-AF ADCs

In the case of `CC[C@H](C)[C@@H]([C@@H](CC(=O)N1CCC[C@H]1[C@H](OC)[C@@H](C)C(=O)N[C@@H](Cc1ccccc1)C(=O)O)OC)N(C)C(=O)[C@@H](NC(=O)[C@H](C(C)C)N(C)C)C(C)C` [AF, Auristatin F] (NMe2Val-V[Dil][Dolaproine]F-OH), the EC50 [1, 5] is reported as 18.8 nM, the EC50 ([1]; Table 8, 3 days, Alamar Blue) is reported as 12.9 nM and the EC50 [2, 5] is reported as 69.4 nM. It also gave an EC50 ([2]; Table 6) of 287 nM, an EC50 ([2]; Table 8, 3 days, Alamar Blue) of 23.5 nM and an EC50 ([3]; Table 6) of 71 nM. It also gave an EC50 ([3]; Table 8, 3 days, Alamar Blue) of 33.3 nM and an EC50 [4] of 58.8 nM.
